Several values for one entry are separate records, joined by “and”; a condition that tells them apart may be missing. Identical values can stand only once. Toxic doses and inconclusive results are not listed. No stated cut-off is given here; in the data, active means T/C of 150% or more; inactive means T/C below 125%.
Test system: L1210 leukemia ip in BDF1 mice, survival T/C
Test: NCI In Vivo Anticancer Drug Screen. Data for tumor model L1210 Leukemia (intraperitoneal) in B6D2F1 (BDF1) mice
Conditions: endpoint: mean survival time, higher = longer survival
Summary of the method: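 In this screen, tumor-bearing mice given compound are compared to those given vehicle, and their survival values are reported as a treated-to-control quotient.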

[1] = dose: 100.0 mg/kg/injection, schedule: Q01DX009 (ip), vehicle: Klucel (hydroxypropylcellulose) (HPC)
[2] = dose: 100.0 mg/kg/injection, schedule: Q04DX003 (ip), vehicle: Klucel (hydroxypropylcellulose) (HPC)
[3] = dose: 200.0 mg/kg/injection, schedule: Q01DX009 (ip), vehicle: Klucel (hydroxypropylcellulose) (HPC)
[4] = dose: 200.0 mg/kg/injection, schedule: Q04DX003 (ip), vehicle: Klucel (hydroxypropylcellulose) (HPC)
[5] = dose: 400.0 mg/kg/injection, schedule: Q04DX003 (ip), vehicle: Klucel (hydroxypropylcellulose) (HPC)
[6] = dose: 100.0 mg/kg/injection, schedule: Q04DX002 (ip), vehicle: saline
[7] = dose: 200.0 mg/kg/injection, schedule: Q04DX002 (ip), vehicle: saline
[8] = dose: 400.0 mg/kg/injection, schedule: Q04DX002 (ip), vehicle: saline
[9] = dose: 400.0 mg/kg/injection, schedule: Q01DX009 (ip), vehicle: Klucel (hydroxypropylcellulose) (HPC)
[10] = dose: 50.0 mg/kg/injection, schedule: Q01DX001 (ip), vehicle: carboxymethylcellulose (CMC)
[11] = dose: 100.0 mg/kg/injection, schedule: Q01DX001 (ip), vehicle: carboxymethylcellulose (CMC)
[12] = dose: 200.0 mg/kg/injection, schedule: Q01DX001 (ip), vehicle: carboxymethylcellulose (CMC)
[13] = dose: 400.0 mg/kg/injection, schedule: Q01DX001 (ip), vehicle: carboxymethylcellulose (CMC)
[14] = dose: 100.0 mg/kg/injection, schedule: Q04DX002 (ip), vehicle: Klucel (hydroxypropylcellulose) (HPC)
[15] = dose: 200.0 mg/kg/injection, schedule: Q04DX002 (ip), vehicle: Klucel (hydroxypropylcellulose) (HPC)
[16] = dose: 400.0 mg/kg/injection, schedule: Q04DX002 (ip), vehicle: Klucel (hydroxypropylcellulose) (HPC)
[17] = dose: 100.0 mg/kg/injection, schedule: Q01DX001 (ip), vehicle: saline
[18] = dose: 200.0 mg/kg/injection, schedule: Q01DX001 (ip), vehicle: saline
[19] = dose: 400.0 mg/kg/injection, schedule: Q01DX001 (ip), vehicle: saline
[20] = dose: 100.0 mg/kg/injection, schedule: Q01DX009 (ip), vehicle: saline with Tween-80

Measured: T/C

O/N=C\CCC/C=N/O
inactive: [1] 98 % of control | [2] 100 % of control | [3] 91 % of control | [4] 94 % of control | [5] 103 % of control

CCn1cc(C(=O)O)c(=O)c2cccc(Cl)c21
inactive: dose: 25.0 mg/kg/injection, schedule: Q04DX002 (ip), vehicle: saline 100 % of control | dose: 50.0 mg/kg/injection, schedule: Q04DX002 (ip), vehicle: saline 107 % of control | [6] 107 % of control | [7] 99 % of control | [8] 118 % of control

O=C(O)CN1C(=O)OC(c2ccccc2)C1=O (stereo unspecified)
inactive: [1] 101 % of control | [3] 97 % of control | [9] 86 % of control

CCOC(=O)CC(C(=O)O)=C(c1ccccc1)c1ccccc1
inactive: [10] 98 % of control | [11] 98 % of control | [12] 93 % of control | [13] 93 % of control

C1CC2(C34CCC(CC3)C4)CCC1C2
inactive: [10] 105 % of control | [11] 96 % of control | [12] 105 % of control | [13] 88 % of control

CCOc1ccccc1NC(=O)Nc1cccc(C(F)(F)F)c1
inactive: [14] 99 % of control | [15] 92 % of control | [16] 89 % of control

O=C(Nc1ccc(S(=O)(=O)Nc2ccc(N=Nc3ccccc3)cc2)cc1)C(SC1=NC=NC2=NC=NC21)SC1=NC=NC2=NC=NC21 (stereo unspecified)
inactive: dose: 75.0 mg/kg/injection, schedule: Q04DX003 (ip), vehicle: saline 104 % of control | dose: 150.0 mg/kg/injection, schedule: Q04DX003 (ip), vehicle: saline 96 % of control | dose: 300.0 mg/kg/injection, schedule: Q04DX003 (ip), vehicle: saline 109 % of control

COc1cc2c(c(OC)c1OC)-c1ccc(SC)c(=O)cc1C(N=C(NC1OCC(OC(C)=O)C(OC(C)=O)C1OC(C)=O)SN(NC(=O)OCc1ccccc1)C(=O)OCc1ccccc1)CC2 (stereo unspecified)
inactive: dose: 25.0 mg/kg/injection, schedule: Q01DX001 (ip), vehicle: saline with Tween-80 95 % of control | dose: 50.0 mg/kg/injection, schedule: Q01DX001 (ip), vehicle: saline with Tween-80 95 % of control | dose: 100.0 mg/kg/injection, schedule: Q01DX001 (ip), vehicle: saline with Tween-80 100 % of control

N#Cc1c2ccccc2nc2ccccc12
inactive: [10] 90 % of control | [11] 92 % of control | [12] 90 % of control | [13] 90 % of control

Nc1ccc(N=Nc2ccc(S(=O)(=O)Nc3ccccn3)cc2)c(N)n1
inactive: [17] 96 % of control | [18] 102 % of control | [19] 105 % of control

COC(=O)C(=O)CC(=O)c1cccc(C)c1
inactive: [14] 100 % of control | [15] 103 % of control | [16] 92 % of control

C[N+](C)(Cc1ccc(Cl)cc1)C1c2ccccc2-c2ccccc21
inactive: dose: 6.0 mg/kg/injection, schedule: Q04DX003 (ip), vehicle: saline 93 % of control | dose: 12.0 mg/kg/injection, schedule: Q04DX003 (ip), vehicle: saline 102 % of control | dose: 12.5 mg/kg/injection, schedule: Q01DX009 (ip), vehicle: saline 106 % of control | dose: 25.0 mg/kg/injection, schedule: Q01DX009 (ip), vehicle: saline 101 % of control | dose: 25.0 mg/kg/injection, schedule: Q04DX003 (ip), vehicle: saline 94 % of control and 91 % of control | dose: 50.0 mg/kg/injection, schedule: Q01DX009 (ip), vehicle: saline 98 % of control | dose: 50.0 mg/kg/injection, schedule: Q04DX003 (ip), vehicle: saline 87 % of control

CC(C)(C)SCC(NC(=O)OCc1ccccc1)C(=O)O (stereo unspecified)
inactive: dose: 50.0 mg/kg/injection, schedule: Q01DX009 (ip), vehicle: Klucel (hydroxypropylcellulose) (HPC) 100 % of control | dose: 75.0 mg/kg/injection, schedule: Q01DX001 (ip), vehicle: Klucel (hydroxypropylcellulose) (HPC) 91 % of control | [1] 89 % of control | dose: 150.0 mg/kg/injection, schedule: Q01DX001 (ip), vehicle: Klucel (hydroxypropylcellulose) (HPC) 94 % of control | dose: 300.0 mg/kg/injection, schedule: Q01DX001 (ip), vehicle: Klucel (hydroxypropylcellulose) (HPC) 94 % of control

COc1ccc(/C=N/NC(=S)Nc2ccccn2)cc1OC
inactive: dose: 25.0 mg/kg/injection, schedule: Q01DX009 (ip), vehicle: saline with Tween-80 104 % of control | dose: 50.0 mg/kg/injection, schedule: Q01DX009 (ip), vehicle: saline with Tween-80 93 % of control | [20] 122 % of control

O=[N+]([O-])c1cc2cnn(CCl)c2cc1[N+](=O)[O-]
inactive: [17] 103 % of control | [18] 111 % of control | [19] 109 % of control

Cc1ccccc1NC(=O)NO
inactive: [11] 103 % of control | [12] 100 % of control | [13] 105 % of control

Cn1c2c(c(=O)n(C)c1=O)C(C(=O)O)CC(=O)N2 (stereo unspecified)
inactive: [1] 103 % of control | [2] 103 % of control | [3] 102 % of control | [4] 102 % of control | [9] 100 % of control | [5] 110 % of control

CC(=O)C(=O)C1=C2CCCN2CCc2cc3c(cc21)OCO3
inactive: [14] 111 % of control | [15] 114 % of control | [16] 118 % of control

CCCCCCCCCCCCOC(=O)OCCCCCCCCCCCC
inactive: [20] 91 % of control | dose: 100.0 mg/kg/injection, schedule: Q04DX003 (ip), vehicle: saline with Tween-80 97 % of control | dose: 200.0 mg/kg/injection, schedule: Q01DX009 (ip), vehicle: saline with Tween-80 91 % of control | dose: 200.0 mg/kg/injection, schedule: Q04DX003 (ip), vehicle: saline with Tween-80 101 % of control | dose: 400.0 mg/kg/injection, schedule: Q04DX003 (ip), vehicle: saline with Tween-80 101 % of control

O=C1c2ccccc2C(=O)N1CC1CO1 (stereo unspecified)
inactive: dose: 25.0 mg/kg/injection, schedule: Q04DX002 (ip), vehicle: Klucel (hydroxypropylcellulose) (HPC) 90 % of control | dose: 50.0 mg/kg/injection, schedule: Q04DX002 (ip), vehicle: Klucel (hydroxypropylcellulose) (HPC) 93 % of control | [14] 93 % of control

OC(CN1CCOCC1)c1ccccc1 (stereo unspecified)
inactive: [1] 94 % of control | [2] 98 % of control | [3] 95 % of control | [4] 102 % of control

COc1cc2cc3c4cc(OC)c(OC)cc4cc[n+]3c(/C=C/c3cccc([N+](=O)[O-])c3)c2cc1OC
inactive: dose: 100.0 mg/kg/injection, schedule: Q04DX002 (ip), vehicle: carboxymethylcellulose (CMC) 113 % of control | dose: 100.0 mg/kg/injection, schedule: Q04DX002 (ip), vehicle: other 97 % of control and 105 % of control and 109 % of control | dose: 100.0 mg/kg/injection, schedule: Q04DX003 (ip), vehicle: other 107 % of control | dose: 200.0 mg/kg/injection, schedule: Q04DX002 (ip), vehicle: carboxymethylcellulose (CMC) 109 % of control | dose: 200.0 mg/kg/injection, schedule: Q04DX002 (ip), vehicle: other 94 % of control and 104 % of control and 123 % of control | dose: 200.0 mg/kg/injection, schedule: Q04DX003 (ip), vehicle: other 119 % of control | dose: 400.0 mg/kg/injection, schedule: Q04DX002 (ip), vehicle: carboxymethylcellulose (CMC) 109 % of control | dose: 400.0 mg/kg/injection, schedule: Q04DX002 (ip), vehicle: other 108 % of control and 119 % of control | dose: 400.0 mg/kg/injection, schedule: Q04DX003 (ip), vehicle: other 105 % of control | dose: 800.0 mg/kg/injection, schedule: Q04DX002 (ip), vehicle: other 112 % of control

O=[N+]([O-])c1cc2c3c(cccc3c1)CC2
inactive: [17] 95 % of control and 97 % of control | [6] 105 % of control | [18] 100 % of control | [7] 100 % of control | [19] 100 % of control and 110 % of control | [8] 101 % of control

N#C[SH2+].N#C[SH2+].N#C[SH2+].N#C[SH2+].[Cu+2].c1ccc(C[P+](c2ccccc2)(c2ccccc2)c2ccccc2)cc1
inactive: dose: 6.0 mg/kg/injection, schedule: Q01DX009 (ip), vehicle: saline 100 % of control

CCN(CC)CCSC(CO)c1ccccc1 (stereo unspecified)
inactive: dose: 75.0 mg/kg/injection, schedule: Q04DX003 (ip), vehicle: Klucel (hydroxypropylcellulose) (HPC) 97 % of control | dose: 150.0 mg/kg/injection, schedule: Q04DX003 (ip), vehicle: Klucel (hydroxypropylcellulose) (HPC) 92 % of control
